# Assay results published in patent US10039759B2, “Quinolines as FGFR kinase modulators” (priority 2011, dated 2018).
# Read-outs that look alike come from different tables or passages of the source.
# Tests used:
# [1] = biological target: T1, Ba/F3-FGFR3-transfected cells (Homo sapiens, UniProt P22607, cells depend on it, form not given); assay: Ba/F3-FGFR3 (minus IL3 or plus IL3) cellular proliferation assay, Alamar Blue; type: cell-based; conditions: minus IL3; 24 hours, Alamar Blue
# T1 construct: BAF3-FGFR3 (MIN IL3 Alamar Blue- pIC50); other: minus IL3; 24 hours, Alamar Blue
# T1 sequence (P22607 whole entry, change not shown): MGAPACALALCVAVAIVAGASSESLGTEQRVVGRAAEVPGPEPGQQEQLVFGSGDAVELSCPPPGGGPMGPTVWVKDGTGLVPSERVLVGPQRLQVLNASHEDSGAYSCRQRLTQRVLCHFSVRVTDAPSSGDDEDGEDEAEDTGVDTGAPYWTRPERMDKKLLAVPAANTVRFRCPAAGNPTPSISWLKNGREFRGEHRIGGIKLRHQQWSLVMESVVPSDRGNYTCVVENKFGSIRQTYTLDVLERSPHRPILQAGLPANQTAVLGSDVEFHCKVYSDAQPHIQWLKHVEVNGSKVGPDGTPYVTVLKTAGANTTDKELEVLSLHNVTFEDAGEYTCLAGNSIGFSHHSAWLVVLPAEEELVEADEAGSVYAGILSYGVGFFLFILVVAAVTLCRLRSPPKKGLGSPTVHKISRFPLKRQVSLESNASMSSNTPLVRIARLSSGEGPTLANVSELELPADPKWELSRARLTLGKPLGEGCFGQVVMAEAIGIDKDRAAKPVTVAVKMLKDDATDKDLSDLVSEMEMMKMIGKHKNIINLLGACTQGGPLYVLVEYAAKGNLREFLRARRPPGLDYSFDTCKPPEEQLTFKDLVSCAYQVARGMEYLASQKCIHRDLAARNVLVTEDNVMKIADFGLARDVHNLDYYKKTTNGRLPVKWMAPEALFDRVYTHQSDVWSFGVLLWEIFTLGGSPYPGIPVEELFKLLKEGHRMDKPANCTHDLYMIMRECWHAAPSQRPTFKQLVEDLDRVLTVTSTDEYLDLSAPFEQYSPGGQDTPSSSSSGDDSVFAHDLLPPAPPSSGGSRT
# Procedure: (§1) Ba/F3-FGFR3 (Minus IL3 or Plus IL3) (Cellular Proliferation Assay)
# (§2) In a 384 well plate, 100 nl of compound dilution in DMSO was sprayed before adding 50 μl cell culture medium (phenol red free RPMI-1640, 10% FBS, 2 mM L-Glutamine and 50 μg/ml Gentamycin) containing 20000 cells per well of Ba/F3-FGFR3-transfected cells. Cells were put in an incubator at 37° C. and 5% CO2. After 24 hours, 10 μl of Alamar Blue solution (0.5 mM K3Fe(CN)6, 0.5 mM K4Fe(CN)6, 0.15 mM Resazurin and 100 mM Phosphate Buffer) was added to the wells, incubated for 4 hours at 37° C. and 5% CO2 before RFU's (Relative Fluorescence Units) (ex. 540 nm., em. 590 nm.) were measured in a fluorescence plate reader.
# (§3) In this assay, the inhibitory effect of different compound concentrations (range 10 μM to 0.1 nM) was determined and used to calculate an IC50 (M) and pIC50 (−log IC50) value. As a counterscreen the same experiment was performed in the presence of 10 ng/ml murine IL3.
# FGFR2 (h) = FGFR2 (h) (Homo sapiens, UniProt P21802); assay: FGFR2 (enzymatic assay), TR-FRET; type: biochemical; conditions: 60 min, pIC50 = -log IC50 (M), average if tested multiple times
# Chain of FGFR2 (h) (P21802 22-821): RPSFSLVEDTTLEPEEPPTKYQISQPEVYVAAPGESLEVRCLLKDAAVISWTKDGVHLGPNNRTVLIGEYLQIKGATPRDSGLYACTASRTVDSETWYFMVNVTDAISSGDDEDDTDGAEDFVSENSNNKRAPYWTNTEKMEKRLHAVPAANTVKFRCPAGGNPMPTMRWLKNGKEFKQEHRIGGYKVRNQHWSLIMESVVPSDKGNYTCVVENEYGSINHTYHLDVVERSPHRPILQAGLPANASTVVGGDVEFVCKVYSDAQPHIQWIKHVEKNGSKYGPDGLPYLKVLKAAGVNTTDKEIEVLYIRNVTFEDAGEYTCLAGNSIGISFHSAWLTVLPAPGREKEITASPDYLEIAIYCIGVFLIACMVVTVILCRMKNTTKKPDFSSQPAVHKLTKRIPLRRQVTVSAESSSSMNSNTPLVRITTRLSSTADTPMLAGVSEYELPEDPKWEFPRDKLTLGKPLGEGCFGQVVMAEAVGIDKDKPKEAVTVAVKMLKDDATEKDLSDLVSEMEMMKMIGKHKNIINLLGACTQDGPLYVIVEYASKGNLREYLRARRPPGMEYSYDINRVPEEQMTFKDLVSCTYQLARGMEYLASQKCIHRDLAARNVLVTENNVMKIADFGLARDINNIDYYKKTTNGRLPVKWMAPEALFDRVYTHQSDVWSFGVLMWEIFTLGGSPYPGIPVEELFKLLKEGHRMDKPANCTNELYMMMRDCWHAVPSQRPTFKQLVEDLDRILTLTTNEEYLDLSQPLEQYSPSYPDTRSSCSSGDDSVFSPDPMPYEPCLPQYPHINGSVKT
# [2] = biological target: T2, Ba/F3-FGFR1-transfected cells (Homo sapiens, UniProt P11362, cells depend on it, form not given); assay: Ba/F3-FGFR1 (minus IL3 or plus IL3) cellular proliferation assay, Alamar Blue; type: cell-based; conditions: minus IL3, 24 hours
# T2 construct: other: minus IL3; 24 hours, Alamar Blue
# T2 sequence (P11362 whole entry, change not shown): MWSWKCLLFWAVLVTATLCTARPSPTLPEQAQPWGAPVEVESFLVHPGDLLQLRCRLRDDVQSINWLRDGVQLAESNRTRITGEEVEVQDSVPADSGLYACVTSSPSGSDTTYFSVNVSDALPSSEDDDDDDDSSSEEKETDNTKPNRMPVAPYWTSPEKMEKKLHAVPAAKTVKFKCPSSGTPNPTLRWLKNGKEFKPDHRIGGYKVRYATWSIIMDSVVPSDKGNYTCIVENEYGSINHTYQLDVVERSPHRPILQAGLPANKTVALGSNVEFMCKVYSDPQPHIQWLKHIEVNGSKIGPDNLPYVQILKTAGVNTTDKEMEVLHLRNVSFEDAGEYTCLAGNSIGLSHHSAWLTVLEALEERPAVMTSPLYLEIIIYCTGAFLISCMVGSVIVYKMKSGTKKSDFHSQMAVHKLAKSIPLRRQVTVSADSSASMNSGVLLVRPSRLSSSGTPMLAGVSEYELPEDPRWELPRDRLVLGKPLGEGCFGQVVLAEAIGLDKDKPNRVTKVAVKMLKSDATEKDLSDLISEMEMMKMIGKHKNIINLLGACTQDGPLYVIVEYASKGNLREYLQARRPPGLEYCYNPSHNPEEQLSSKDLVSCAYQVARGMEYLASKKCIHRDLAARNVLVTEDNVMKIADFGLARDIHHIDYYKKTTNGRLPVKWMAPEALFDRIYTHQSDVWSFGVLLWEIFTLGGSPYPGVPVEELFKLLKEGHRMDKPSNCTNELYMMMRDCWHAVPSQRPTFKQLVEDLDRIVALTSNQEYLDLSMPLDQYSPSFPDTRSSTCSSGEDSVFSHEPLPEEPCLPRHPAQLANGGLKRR
# Procedure: Ba/F3-FGFR1 (Minus IL3 or Plus IL3) (Cellular Proliferation Assay)
# as §2, with “Ba/F3-FGFR1-transfected” for “Ba/F3-FGFR3-transfected”
# as §3
# FGFR4 (h) = FGFR4 (h) (Homo sapiens, UniProt P22455); assay: FGFR4 (enzymatic assay), TR-FRET; type: biochemical; conditions: FGFR 4 pIC50, 5 μM ATP, 60 min; pIC50 = -log IC50 (M); average if tested multiple times
# KDR (h) = KDR (h) (Homo sapiens, UniProt P35968); assay: KDR (VEGFR2) (enzymatic assay), TR-FRET; type: biochemical; conditions: 120 min, pIC50 = -log IC50 (M), average if tested multiple times
# Procedure: KDR (VEGFR2) (Enzymatic Assay)
# In a final reaction volume of 30 μL, KDR (h) (150 ng/ml) was incubated with 50 mM HEPES pH 7.5, 6 mM MnCl2, 1 mM DTT, 0.1 mM Na3VO4, 0.01% Triton-X-100, 500 nM Btn-Flt3 and 3 μM ATP in the presence of compound (1% DMSO final). After incubation for 120 minutes at room temperature the reaction was stopped with 2.27 nM EU-anti P-Tyr, 7 mM EDTA, 31.25 nM SA-XL-665 and 0.02% BSA which was present for 60 minutes at room temperature. Time-Resolved Fluorescence Resonance Energy Transfer (TR-FRET) signal (ex340 nm. Em 620 nm, em 655 nm) was measured afterwards and results are expressed in RFU (Relative Fluorescence Units). In this assay, the inhibitory effect of different compound concentrations (range 10 μM to 0.1 nM) was determined and used to calculate an IC50 (M) and pIC50 (−log IC50) value.
# [3] = biological target: Ba/F3-FGFR4-transfected cells (Homo sapiens, UniProt P22455); assay: Ba/F3-FGFR4 cellular proliferation assay, Alamar Blue; type: cell-based; conditions: 24 hours
# Chain of Ba/F3-FGFR4-transfected cells (P22455 whole entry, change not shown): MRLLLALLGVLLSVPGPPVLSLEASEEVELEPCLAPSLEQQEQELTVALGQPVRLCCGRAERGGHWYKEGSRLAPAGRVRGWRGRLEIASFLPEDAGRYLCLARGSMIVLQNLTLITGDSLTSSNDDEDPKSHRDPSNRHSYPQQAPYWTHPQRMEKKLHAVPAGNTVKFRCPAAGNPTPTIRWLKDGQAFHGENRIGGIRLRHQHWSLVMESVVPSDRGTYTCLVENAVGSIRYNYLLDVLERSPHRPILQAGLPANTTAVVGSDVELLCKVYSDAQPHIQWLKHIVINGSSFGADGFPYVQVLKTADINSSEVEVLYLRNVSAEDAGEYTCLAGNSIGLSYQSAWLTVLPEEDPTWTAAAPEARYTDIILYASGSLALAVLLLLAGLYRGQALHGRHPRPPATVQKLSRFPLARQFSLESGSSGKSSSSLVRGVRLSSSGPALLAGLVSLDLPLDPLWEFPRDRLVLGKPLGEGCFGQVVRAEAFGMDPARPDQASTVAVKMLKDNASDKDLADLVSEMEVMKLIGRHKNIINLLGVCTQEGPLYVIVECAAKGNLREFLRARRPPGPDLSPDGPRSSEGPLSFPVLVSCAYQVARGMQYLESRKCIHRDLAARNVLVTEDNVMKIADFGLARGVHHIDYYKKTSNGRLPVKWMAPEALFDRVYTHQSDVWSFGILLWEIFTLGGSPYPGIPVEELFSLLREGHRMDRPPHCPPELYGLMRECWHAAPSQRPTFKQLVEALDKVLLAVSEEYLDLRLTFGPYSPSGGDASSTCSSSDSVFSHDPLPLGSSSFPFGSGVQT
# Procedure: Ba/F3-FGFR4 (Cellular Proliferation Assay)
# as §2, with “Ba/F3-FGFR4-transfected” for “Ba/F3-FGFR3-transfected”
# In this assay, the inhibitory effect of different compound concentrations (range 10 μM to 0.1 nM) was determined and used to calculate an IC50 (M) and pIC50 (−log IC50) value.
# FGFR3 (h) = FGFR3 (h) (Homo sapiens, UniProt P22607); assay: FGFR3 (enzymatic assay), TR-FRET; type: biochemical; conditions: 60 min, pIC50 = -log IC50 (M), average if tested multiple times
# [4] = biological target: T3, Ba/F3-KDR-transfected cells (Homo sapiens, UniProt P35968, cells depend on it, form not given); assay: Ba/F3-KDR (minus IL3 or plus IL3) cellular proliferation assay, Alamar Blue; type: cell-based; conditions: minus IL3; 24 hours, Alamar Blue
# T3 construct: BAF3-KDR (MIN IL3 Alamar Blue pIC50); other: minus IL3; 24 hours, Alamar Blue
# T3 sequence (P35968 whole entry, change not shown): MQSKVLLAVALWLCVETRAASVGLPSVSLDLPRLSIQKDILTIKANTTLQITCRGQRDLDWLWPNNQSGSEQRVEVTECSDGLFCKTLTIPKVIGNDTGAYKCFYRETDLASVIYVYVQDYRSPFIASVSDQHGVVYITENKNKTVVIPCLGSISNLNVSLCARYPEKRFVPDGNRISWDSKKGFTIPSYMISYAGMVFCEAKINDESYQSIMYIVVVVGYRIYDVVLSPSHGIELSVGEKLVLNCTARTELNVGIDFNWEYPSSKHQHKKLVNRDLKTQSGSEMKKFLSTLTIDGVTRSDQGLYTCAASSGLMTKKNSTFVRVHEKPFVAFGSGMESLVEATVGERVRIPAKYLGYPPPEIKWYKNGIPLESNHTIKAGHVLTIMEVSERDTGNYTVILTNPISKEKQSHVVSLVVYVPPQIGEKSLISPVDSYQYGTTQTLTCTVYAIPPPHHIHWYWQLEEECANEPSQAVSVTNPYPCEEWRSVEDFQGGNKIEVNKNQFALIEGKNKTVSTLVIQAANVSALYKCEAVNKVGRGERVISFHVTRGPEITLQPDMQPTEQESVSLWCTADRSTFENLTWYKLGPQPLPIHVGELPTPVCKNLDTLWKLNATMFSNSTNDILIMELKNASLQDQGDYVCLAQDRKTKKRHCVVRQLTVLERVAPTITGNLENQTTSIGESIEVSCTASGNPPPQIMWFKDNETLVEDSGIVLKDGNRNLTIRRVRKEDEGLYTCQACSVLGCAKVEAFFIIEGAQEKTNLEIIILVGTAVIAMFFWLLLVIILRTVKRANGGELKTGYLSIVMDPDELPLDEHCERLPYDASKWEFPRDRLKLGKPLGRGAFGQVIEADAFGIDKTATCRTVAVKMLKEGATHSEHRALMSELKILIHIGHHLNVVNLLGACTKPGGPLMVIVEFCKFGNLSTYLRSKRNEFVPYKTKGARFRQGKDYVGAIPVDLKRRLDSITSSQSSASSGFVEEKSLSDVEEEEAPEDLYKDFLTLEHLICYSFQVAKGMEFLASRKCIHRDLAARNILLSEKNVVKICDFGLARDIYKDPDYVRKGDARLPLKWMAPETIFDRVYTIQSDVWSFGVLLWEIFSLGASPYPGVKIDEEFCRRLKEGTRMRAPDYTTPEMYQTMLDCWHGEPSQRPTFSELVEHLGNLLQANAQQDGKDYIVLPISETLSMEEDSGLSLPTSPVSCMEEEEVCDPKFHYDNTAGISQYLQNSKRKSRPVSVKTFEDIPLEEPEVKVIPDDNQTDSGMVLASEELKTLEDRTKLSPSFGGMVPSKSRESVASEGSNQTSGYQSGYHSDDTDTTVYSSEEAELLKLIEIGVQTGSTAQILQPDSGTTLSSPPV
# Procedure: (§4) Ba/F3-KDR (Minus IL3 or Plus IL3) (Cellular Proliferation Assay)
# as §2, with “Ba/F3-KDR-transfected” for “Ba/F3-FGFR3-transfected”
# as §3
# [5] = test system: Ba/F3-FGFR3-transfected cells; assay: Ba/F3-FGFR3 (minus IL3 or plus IL3) cellular proliferation assay, Alamar Blue; type: cell-based; conditions: plus IL3 (10 ng/ml murine IL3, counterscreen); 24 hours, Alamar Blue; read-out: BAF3-FGFR3 (PLUS IL3 Alamar Blue pIC50) (converted)
# Procedure: as §1, §2, §3
# [6] = test system: Ba/F3-KDR-transfected cells; assay: Ba/F3-KDR (minus IL3 or plus IL3) cellular proliferation assay, Alamar Blue; type: cell-based; conditions: plus IL3 (10 ng/ml murine IL3, counterscreen); 24 hours, Alamar Blue; read-out: BAF3-KDR (PLUS IL3 Alamar Blue pIC50) (converted)
# Procedure: as §4
# as §2, with “Ba/F3-KDR-transfected” for “Ba/F3-FGFR3-transfected”
# as §3
# FGFR1 (h) = FGFR1 (h) (Homo sapiens, UniProt P11362); assay: FGFR1 (enzymatic assay), TR-FRET; type: biochemical; conditions: FGFR 1 pIC50, 5 μM ATP, 60 min; pIC50 = -log IC50 (M); average if tested multiple times
# [7] = 0.4 μM ATP, read-out: FGFR 2 pIC50 (converted)
# [8] = 3 μM ATP, read-out: VEGFR KDR pIC50 (converted)
# [9] = 25 μM ATP, read-out: hFGFR 3 pIC50 (converted)
Structure (SMILES),BAF3-FGFR3 (MIN IL3 Alamar Blue- pIC50) [1],IC50 (FGFR2 (h); [7]) [M],BAF3-FGFR1 (MIN IL3 pIC50) [2],IC50 (FGFR4 (h)) [M],IC50 (KDR (h); [8]) [M],BAF3-FGFR 4 (pIC50) [3],IC50 (FGFR3 (h); [9]) [M],BAF3-KDR (MIN IL3 Alamar Blue pIC50) [4],IC50 (FGFR1 (h)) [M],IC50 [5] [nM],IC50 [6] [nM],"IC50 (FGFR2 (h); FGFR 2 pIC50, 0.4 μM ATP) [M]","IC50 (KDR (h); VEGFR KDR pIC50, 3 μM ATP) [M]","IC50 (FGFR3 (h); hFGFR 3 pIC50, 25 μM ATP) [M]"
COc1cc(OC)cc(N(Cc2ncc[nH]2)c2ccc3ncc(-c4ccn(C)c4)cc3c2)c1 [Compound 62],6.75,2.09e-09,6.63,3.31e-09,2.57e-07,6.24,1.45e-09,<5,–,–,–,–,–,–
COc1cc(OC)cc(N(CC2CCC(=O)N2)c2ccc3ncc(-c4cnn(C)c4)cc3c2)c1 (stereo not drawn) [Compound 44],6.61,3.24e-09,5.65,~1.35e-08,5.25e-08,6.00,1.7e-09,5.18,–,> 10000,> 10000,–,–,–
COc1cc(OC)cc(N(Cc2ncc[nH]2)c2ccc3ncc(C4=CCNCC4)cc3c2)c1 [Compound 46],5.68,–,5.89,1.7e-08,–,5.28,–,<5,6.31e-09,–,–,3.63e-09,1.02e-06,2.45e-09
"COc1cc(OC)cc(C(CCO)c2ccc3ncc(-c4cnn(C)c4)cc3c2)c1 (single isomer, unassigned) [Compound 36]",–,> 1e-06,–,> 1e-06,> 1e-06,–,> 1e-06,–,–,–,–,–,–,–
COc1cc(OC)cc(C(=O)c2ccc3ncc(-c4cnn(C)c4)cc3c2)c1 [Compound 31],5.46,3.09e-08,5.65,2.57e-07,1.58e-07,5.12,1.86e-08,<5,–,–,–,–,–,–
COc1cc(OC)cc(C(CCNC(C)C)c2ccc3ncc(-c4cnn(C)c4)cc3c2)c1 (stereo not drawn) [Compound 41],6.30,2.04e-08,6.43,1.66e-07,> 1e-06,5.78,3.89e-08,<5,–,> 10000,> 10000,–,–,–
COc1cc(OC)cc(N(CCO)c2ccc3ncc(N4CCOCC4)cc3c2)c1 [Compound 54],5.16,1.82e-07,<5,> 1e-06,> 1e-06,<5,1.45e-07,<5,3.8e-07,> 10000,> 10000,–,–,–

# Continued, in another order:
BAF3-FGFR3 (MIN IL3 Alamar Blue- pIC50) [1],IC50 (FGFR2 (h); [7]) [M],BAF3-FGFR1 (MIN IL3 pIC50) [2],IC50 (FGFR4 (h)) [M],IC50 (KDR (h); [8]) [M],BAF3-FGFR 4 (pIC50) [3],IC50 (FGFR3 (h); [9]) [M],BAF3-KDR (MIN IL3 Alamar Blue pIC50) [4],IC50 (FGFR1 (h)) [M],Structure (SMILES),IC50 [5] [nM],IC50 [6] [nM],"IC50 (FGFR2 (h); FGFR 2 pIC50, 0.4 μM ATP) [M]","IC50 (KDR (h); VEGFR KDR pIC50, 3 μM ATP) [M]","IC50 (FGFR3 (h); hFGFR 3 pIC50, 25 μM ATP) [M]"
5.89,3.47e-08,6.03,3.02e-07,3.31e-07,5.25,2.19e-08,5.55,–,COc1cc(OC)cc(/C(=C\C#N)c2ccc3ncc(-c4cnn(C)c4)cc3c2)c1 [Compound 30],–,–,–,–,–
5.77,2e-08,5.64,1.32e-07,> 1e-06,5.37,2.04e-08,<5,9.12e-08,COc1cc(OC)cc(N(Cc2ncc[nH]2)c2ccc3ncc(N4CCOCC4)cc3c2)c1 [Compound 55],–,–,–,–,–
5.08,3.02e-07,<5,–,> 1e-06,<5,2.19e-07,<5,1.86e-07,COc1cc(OC)cc(C(CC(N)=O)c2ccc3ncc(-c4cnn(C)c4)cc3c2)c1 (stereo not drawn) [Compound 40],> 10000,> 10000,–,–,–
7,6.61e-09,7.23,8.71e-09,1.29e-07,6.81,4.9e-09,5.57,2.51e-09,COc1cc(OC)cc(N(CCNC(C)C)c2ccc3ncc(-c4cnn(CCO)c4)cc3c2)c1 [Compound 13],–,–,–,–,–
